Experimental data published in PubChem BioAssay AID330 (DTP/NCI, 2004).
Inconclusive results and toxic doses are left out.

Tested on: P388 leukemia ip, CD2F1 mice, survival T/C
Experiment: NCI In Vivo Anticancer Drug Screen. Data for tumor model P388 Leukemia (intraperitoneal) in CD2F1 (CDF1) mice
Settings: endpoint: median survival time, higher = longer survival
Method in brief: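 Mice carrying the transplanted tumor received test compound or vehicle. Survival was recorded in each group, and the value is the treated-group measurement divided by that of the vehicle-treated control group.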

[1] = dose: 60.0 mg/kg/injection, schedule: Q01DX005 (ip), vehicle: saline with Tween-80
[2] = dose: 120.0 mg/kg/injection, schedule: Q01DX005 (ip), vehicle: saline with Tween-80
[3] = dose: 25.0 mg/kg/injection, schedule: Q01DX001 (ip), vehicle: saline
[4] = dose: 50.0 mg/kg/injection, schedule: Q01DX001 (ip), vehicle: saline
[5] = dose: 50.0 mg/kg/injection, schedule: Q01DX009 (ip), vehicle: Klucel (hydroxypropylcellulose) (HPC)
[6] = dose: 100.0 mg/kg/injection, schedule: Q01DX009 (ip), vehicle: Klucel (hydroxypropylcellulose) (HPC)

## CC(N)C(=O)NCC(=O)NCC(=O)O (stereo unspecified)
dose: 50.0 mg/kg/injection, schedule: Q01DX005 (ip), vehicle: saline
  T/C: 100 % of control
dose: 100.0 mg/kg/injection, schedule: Q01DX005 (ip), vehicle: saline
  T/C: 106 % of control
dose: 200.0 mg/kg/injection, schedule: Q01DX005 (ip), vehicle: saline
  T/C: 99 % of control

## CSc1nccc(=O)n1-c1ccccc1Cl
dose: 100.0 mg/kg/injection, schedule: Q04DX003 (ip), vehicle: saline with Tween-80
  T/C: 109 % of control
dose: 200.0 mg/kg/injection, schedule: Q04DX003 (ip), vehicle: saline with Tween-80
  T/C: 114 % of control

## O/N=C(/c1ccccc1)n1nnc2ccccc21
[1]
  T/C: 118 % of control
[2]
  T/C: 106 % of control
dose: 240.0 mg/kg/injection, schedule: Q01DX005 (ip), vehicle: saline with Tween-80
  T/C: 105 % of control

## Cc1ccc2c(C(=O)O)cc(N)cc2n1
dose: 2.0 mg/kg/injection, schedule: Q01DX005 (ip), vehicle: Klucel (hydroxypropylcellulose) (HPC)
  T/C: 100 % of control
dose: 4.0 mg/kg/injection, schedule: Q01DX005 (ip), vehicle: Klucel (hydroxypropylcellulose) (HPC)
  T/C: 104 % of control
dose: 7.5 mg/kg/injection, schedule: Q01DX005 (ip), vehicle: Klucel (hydroxypropylcellulose) (HPC)
  T/C: 102 % of control
dose: 8.0 mg/kg/injection, schedule: Q01DX005 (ip), vehicle: Klucel (hydroxypropylcellulose) (HPC)
  T/C: 97 % of control

## O=c1[nH]nnc2c1ncn2C1OC(CO)C(O)C1O (stereo unspecified)
dose: 12.5 mg/kg/injection, schedule: Q01DX001 (ip), vehicle: saline
  T/C: 99 % of control
[3]
  T/C: 106 % of control
[4]
  T/C: 100 % of control
dose: 100.0 mg/kg/injection, schedule: Q01DX001 (ip), vehicle: saline
  T/C: 99 % of control

## CC1=C(N2CC2)C(=O)c2ccccc2C1=O
[5]
  T/C: 93 % of control
[6]
  T/C: 90 % of control

## CCCCCCCCCCCC[N+]1(CC)CCOCC1
dose: 3.12 mg/kg/injection, schedule: Q01DX009 (ip), vehicle: saline
  T/C: 106 % of control
dose: 6.25 mg/kg/injection, schedule: Q01DX009 (ip), vehicle: saline
  T/C: 101 % of control
dose: 12.5 mg/kg/injection, schedule: Q01DX009 (ip), vehicle: saline
  T/C: 101 % of control

## O=S(=O)(NCCSSCCNS(=O)(=O)c1cccc2cccnc12)c1cccc2cccnc12
[5]
  T/C: 100 % of control
[6]
  T/C: 89 % of control
dose: 200.0 mg/kg/injection, schedule: Q01DX009 (ip), vehicle: Klucel (hydroxypropylcellulose) (HPC)
  T/C: 91 % of control

## CCC12C=CCN3CC[C@@]4(c5cc([C@@]6(C(=O)OC)C[C@@H]7CN(CCc8c6[nH]c6ccccc86)C[C@](O)(CC)C7)c(OC)cc5N(C)[C@H]4[C@@](O)(C(=O)OC)[C@@H]1OC(=O)CCCCCCCCCCCN1C(=O)C=CC1=O)[C@H]32 (stereo partly specified)
dose: 6.25 mg/kg/injection, schedule: Q01DX001 (ip), vehicle: other
  T/C: 124 % of control
dose: 12.5 mg/kg/injection, schedule: Q01DX001 (ip), vehicle: saline with Tween-80
  T/C: 161 % of control
dose: 25.0 mg/kg/injection, schedule: Q01DX001 (ip), vehicle: other
  T/C: 200 % of control
dose: 25.0 mg/kg/injection, schedule: Q01DX001 (ip), vehicle: saline with Tween-80
  T/C: 238 % of control
[3]
  T/C: 202 % of control
[4]
  T/C: 215 % of control

## Cc1cc(C(=O)O)ccc1S(=O)(=O)F
[1]
  T/C: 101 % of control
[2]
  T/C: 105 % of control

## NS(=O)(=O)c1ccc(N=NC2C(=O)N(c3ccccc3)C(=S)N(c3ccccc3)C2=O)cc1
dose: 60.0 mg/kg/injection, schedule: Q01DX005 (ip), vehicle: Klucel (hydroxypropylcellulose) (HPC)
  T/C: 100 % of control
dose: 60.0 mg/kg/injection, schedule: Q01DX005 (ip), vehicle: saline
  T/C: 106 % of control
dose: 120.0 mg/kg/injection, schedule: Q01DX005 (ip), vehicle: Klucel (hydroxypropylcellulose) (HPC)
  T/C: 100 % of control
dose: 120.0 mg/kg/injection, schedule: Q01DX005 (ip), vehicle: saline
  T/C: 95 % of control
dose: 240.0 mg/kg/injection, schedule: Q01DX005 (ip), vehicle: Klucel (hydroxypropylcellulose) (HPC)
  T/C: 91 % of control
dose: 240.0 mg/kg/injection, schedule: Q01DX005 (ip), vehicle: saline
  T/C: 92 % of control

## CC1CCCCC1C(C)(C#N)Nc1ccccc1 (stereo unspecified)
dose: 100.0 mg/kg/injection, schedule: Q01DX009 (ip), vehicle: saline with Tween-80
  T/C: 109 % of control
dose: 200.0 mg/kg/injection, schedule: Q01DX009 (ip), vehicle: saline with Tween-80
  T/C: 113 % of control
dose: 400.0 mg/kg/injection, schedule: Q01DX009 (ip), vehicle: saline with Tween-80
  T/C: 118 % of control
